In patent US8143290B2, “Chemical compounds 572” (AstraZeneca AB, priority 2006, dated 2012):

Target: T1, recombinant human GR (Homo sapiens, UniProt P04150)
T1 construct: purchased Panvera/Invitrogen P2812 (kit P2893)
T1 sequence (P04150 1-777): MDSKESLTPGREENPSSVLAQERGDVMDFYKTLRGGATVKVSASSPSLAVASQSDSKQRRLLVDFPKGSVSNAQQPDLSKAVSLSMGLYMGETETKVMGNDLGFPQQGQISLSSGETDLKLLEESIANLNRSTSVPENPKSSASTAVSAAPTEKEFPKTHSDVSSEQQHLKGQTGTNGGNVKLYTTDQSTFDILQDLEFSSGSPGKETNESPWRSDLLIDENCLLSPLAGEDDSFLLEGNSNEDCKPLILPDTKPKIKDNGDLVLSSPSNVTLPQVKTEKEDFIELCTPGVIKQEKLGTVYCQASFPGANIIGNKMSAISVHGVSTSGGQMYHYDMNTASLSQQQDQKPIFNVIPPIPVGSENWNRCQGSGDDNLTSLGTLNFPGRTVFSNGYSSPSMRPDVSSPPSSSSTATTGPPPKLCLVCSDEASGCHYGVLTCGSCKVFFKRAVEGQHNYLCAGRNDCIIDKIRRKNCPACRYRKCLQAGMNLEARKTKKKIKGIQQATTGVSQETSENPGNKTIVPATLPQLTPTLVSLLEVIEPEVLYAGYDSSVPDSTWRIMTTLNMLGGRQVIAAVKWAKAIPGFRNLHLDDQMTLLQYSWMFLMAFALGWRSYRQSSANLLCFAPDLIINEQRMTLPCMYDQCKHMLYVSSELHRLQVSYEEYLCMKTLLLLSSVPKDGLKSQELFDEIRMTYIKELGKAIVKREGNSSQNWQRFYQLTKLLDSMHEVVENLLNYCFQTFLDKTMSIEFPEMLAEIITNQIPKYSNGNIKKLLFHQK
Experiment: Human Glucocorticoid Receptor (GR) Assay, fluorescence polarization
Type: binding
Conditions: GS Red tracer, incubated 2 h at r.t., XLfit model 205, read-out: GRhuFL_FP_v2 Mean IC50
Summary of the method: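 Fluorescence polarization kit assay: recombinant GR and GS Red fluorescent ligand with Stabilizing Peptide and DTT in potassium phosphate/sodium molybdate/EDTA screening buffer. Plates incubated 2 h in the dark at r.t.; DMSO served as 0% and dexamethasone as 100% control.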

| IC50 | Compound |
| --- | --- |
| 14 nM | Cc1cc(C)c([C@@H](Oc2ccc3c(cnn3-c3ccc(F)cc3)c2)[C@H](C)NC(=O)C(F)(F)F)cc1C [Example 162, 2,2,2-trifluoro-N-[(1R,2S)-1-[1-(4-fluorophenyl)indazol-5-yl]oxy-1-(2,4,5-trimethylphenyl)propan-2-yl]acetamide] |
| 16 nM | C[C@H](NC(=O)C(F)(F)F)[C@H](Oc1ccc2c(cnn2-c2ccc(F)cc2)c1)c1ccc(C(C)(C)C)cc1 [Example 163, 2,2,2-trifluoro-N-[(1R,2S)-1-[1-(4-fluorophenyl)indazol-5-yl]oxy-1-(4-tert-butylphenyl)propan-2-yl]acetamide] |
| 4.2 nM | COc1ccccc1[C@@H](Oc1ccc2c(cnn2-c2ccc(F)cc2)c1)[C@H](C)NC(=O)C(F)(F)F [Example 164, 2,2,2-trifluoro-N-[(1R,2S)-1-[1-(4-fluorophenyl)indazol-5-yl]oxy-1-(2-methoxyphenyl)propan-2-yl]acetamide] |
| 6.4 nM | CCCc1ccc([C@@H](Oc2ccc3c(cnn3-c3ccc(F)cc3)c2)[C@H](C)NC(=O)C(F)(F)F)cc1 [Example 165, 2,2,2-trifluoro-N-[(1R,2S)-1-[1-(4-fluorophenyl)indazol-5-yl]oxy-1-(4-propylphenyl)propan-2-yl]acetamide] |
| 6.9 nM | C[C@H](NC(=O)C(F)(F)F)[C@H](Oc1ccc2c(cnn2-c2ccc(F)cc2)c1)c1ccc2c(c1)OCO2 [Example 166, N-[(1R,2S)-1-benzo[1,3]dioxol-5-yl-1-[1-(4-fluorophenyl)indazol-5-yl]oxy-propan-2-yl]-2,2,2-trifluoro-acetamide] |
| 8.6 nM | Cc1c(F)cccc1[C@@H](Oc1ccc2c(cnn2-c2ccc(F)cc2)c1)[C@H](C)NC(=O)C(F)(F)F [Example 167, 2,2,2-trifluoro-N-[(1R,2S)-1-(3-fluoro-2-methyl-phenyl)-1-[1-(4-fluorophenyl)indazol-5-yl]oxy-propan-2-yl]acetamide] |
| 6.2 nM | Cc1cc([C@@H](Oc2ccc3c(cnn3-c3ccc(F)cc3)c2)[C@H](C)NC(=O)C(F)(F)F)ccc1Cl [Example 168, N-[(1R,2S)-1-(4-chloro-3-methyl-phenyl)-1-[1-(4-fluorophenyl)indazol-5-yl]oxy-propan-2-yl]-2,2,2-trifluoro-acetamide] |
| 8.1 nM | Cc1cc(Cl)ccc1[C@@H](Oc1ccc2c(cnn2-c2ccc(F)cc2)c1)[C@H](C)NC(=O)C(F)(F)F [Example 169, N-[(1R,2S)-1-(4-chloro-2-methyl-phenyl)-1-[1-(4-fluorophenyl)indazol-5-yl]oxy-propan-2-yl]-2,2,2-trifluoro-acetamide] |
| 7.1 nM | C[C@H](NC(=O)C(F)(F)F)[C@H](Oc1ccc2c(cnn2-c2ccc(F)cc2)c1)c1ccc(Cl)c(F)c1 [Example 170, N-[(1R,2S)-1-(4-chloro-3-fluoro-phenyl)-1-[1-(4-fluorophenyl)indazol-5-yl]oxy-propan-2-yl]-2,2,2-trifluoro-acetamide] |
| 5.6 nM | Cc1ccc([C@@H](Oc2ccc3c(cnn3-c3ccc(F)cc3)c2)[C@H](C)NC(=O)C(C)(C)C)cc1C [Example 171, N-[(1R,2S)-1-(3,4-dimethylphenyl)-1-[1-(4-fluorophenyl)indazol-5-yl]oxy-propan-2-yl]-2,2-dimethyl-propanamide] |
| 4.3 nM | C[C@H](NC(=O)C(C)(C)C)[C@H](Oc1ccc2c(cnn2-c2ccc(F)cc2)c1)c1ccc(F)c(F)c1 [Example 172, N-[(1R,2S)-1-(3,4-difluorophenyl)-1-[1-(4-fluorophenyl)indazol-5-yl]oxy-propan-2-yl]-2,2-dimethyl-propanamide] |
| 4.6 nM | Cc1ccc([C@@H](Oc2ccc3c(cnn3-c3ccc(F)cc3)c2)[C@H](C)NC(=O)C(C)(C)C)cc1F [Example 173, N-[(1R,2S)-1-(3-fluoro-4-methyl-phenyl)-1-[1-(4-fluorophenyl)indazol-5-yl]oxy-propan-2-yl]-2,2-dimethyl-propanamide] |
| 4.1 nM | C[C@H](NC(=O)C(C)(C)C)[C@H](Oc1ccc2c(cnn2-c2ccc(F)cc2)c1)c1cccc(F)c1 [Example 174, N-[(1R,2S)-1-(3-fluorophenyl)-1-[1-(4-fluorophenyl)indazol-5-yl]oxy-propan-2-yl]-2,2-dimethyl-propanamide] |
| 4.3 nM | Cc1ccc(C)c([C@@H](Oc2ccc3c(cnn3-c3ccc(F)cc3)c2)[C@H](C)NC(=O)C(C)(C)C)c1 [Example 175, N-[(1R,2S)-1-(2,5-dimethylphenyl)-1-[1-(4-fluorophenyl)indazol-5-yl]oxy-propan-2-yl]-2,2-dimethyl-propanamide] |
| 4.9 nM | Cc1ccc([C@@H](Oc2ccc3c(cnn3-c3ccc(F)cc3)c2)[C@H](C)NC(=O)C(C)(C)C)c(C)c1 [Example 176, N-[(1R,2S)-1-(2,4-dimethylphenyl)-1-[1-(4-fluorophenyl)indazol-5-yl]oxy-propan-2-yl]-2,2-dimethyl-propanamide] |
| 3.9 nM | COc1ccc([C@@H](Oc2ccc3c(cnn3-c3ccc(F)cc3)c2)[C@H](C)NC(=O)C(C)(C)C)cc1F [Example 177, N-[(1R,2S)-1-(3-fluoro-4-methoxy-phenyl)-1-[1-(4-fluorophenyl)indazol-5-yl]oxy-propan-2-yl]-2,2-dimethyl-propanamide] |
| 3.9 nM | C[C@H](NC(=O)C(C)(C)C)[C@H](Oc1ccc2c(cnn2-c2ccc(F)cc2)c1)c1cccc(Cl)c1 [Example 178, N-[(1R,2S)-1-(3-chlorophenyl)-1-[1-(4-fluorophenyl)indazol-5-yl]oxy-propan-2-yl]-2,2-dimethyl-propanamide] |
| 3.7 nM | Cc1cc(F)ccc1[C@@H](Oc1ccc2c(cnn2-c2ccc(F)cc2)c1)[C@H](C)NC(=O)C(C)(C)C [Example 179, N-[(1R,2S)-1-(4-fluoro-2-methyl-phenyl)-1-[1-(4-fluorophenyl)indazol-5-yl]oxy-propan-2-yl]-2,2-dimethyl-propanamide] |
| 6.8 nM | Cc1ccc(F)cc1[C@@H](Oc1ccc2c(cnn2-c2ccc(F)cc2)c1)[C@H](C)NC(=O)C(C)(C)C [Example 180, N-[(1R,2S)-1-(5-fluoro-2-methyl-phenyl)-1-[1-(4-fluorophenyl)indazol-5-yl]oxy-propan-2-yl]-2,2-dimethyl-propanamide] |
| 3.2 nM | COc1ccc(F)cc1[C@@H](Oc1ccc2c(cnn2-c2ccc(F)cc2)c1)[C@H](C)NC(=O)C(C)(C)C [Example 181, N-[(1R,2S)-1-(5-fluoro-2-methoxy-phenyl)-1-[1-(4-fluorophenyl)indazol-5-yl]oxy-propan-2-yl]-2,2-dimethyl-propanamide] |
| 5.5 nM | COc1c(C)cc([C@@H](Oc2ccc3c(cnn3-c3ccc(F)cc3)c2)[C@H](C)NC(=O)C(C)(C)C)cc1C [Example 182, N-[(1R,2S)-1-[1-(4-fluorophenyl)indazol-5-yl]oxy-1-(4-methoxy-3,5-dimethyl-phenyl)propan-2-yl]-2,2-dimethyl-propanamide] |
| 4.6 nM | C[C@H](NC(=O)C(C)(C)C)[C@H](Oc1ccc2c(cnn2-c2ccc(F)cc2)c1)c1ccc(Cl)cc1 [Example 183, N-[(1R,2S)-1-(4-chlorophenyl)-1-[1-(4-fluorophenyl)indazol-5-yl]oxy-propan-2-yl]-2,2-dimethyl-propanamide] |
| 5.1 nM | C[C@H](NC(=O)C(C)(C)C)[C@H](Oc1ccc2c(cnn2-c2ccc(F)cc2)c1)c1cc(F)cc(Cl)c1 [Example 184, N-[(1R,2S)-1-(3-chloro-5-fluoro-phenyl)-1-[1-(4-fluorophenyl)indazol-5-yl]oxy-propan-2-yl]-2,2-dimethyl-propanamide] |
| 5.5 nM | Cc1cccc([C@@H](Oc2ccc3c(cnn3-c3ccc(F)cc3)c2)[C@H](C)NC(=O)C(C)(C)C)c1 [Example 185, N-[(1R,2S)-1-[1-(4-fluorophenyl)indazol-5-yl]oxy-1-(3-methylphenyl)propan-2-yl]-2,2-dimethyl-propanamide] |
| 6.6 nM | C[C@H](NC(=O)C(C)(C)C)[C@H](Oc1ccc2c(cnn2-c2ccc(F)cc2)c1)c1ccc(C(C)(C)C)cc1 [Example 186, N-[(1R,2S)-1-[1-(4-fluorophenyl)indazol-5-yl]oxy-1-(4-tert-butylphenyl)propan-2-yl]-2,2-dimethyl-propanamide] |
| 4.5 nM | COc1ccccc1[C@@H](Oc1ccc2c(cnn2-c2ccc(F)cc2)c1)[C@H](C)NC(=O)C(C)(C)C [Example 187, N-[(1R,2S)-1-[1-(4-fluorophenyl)indazol-5-yl]oxy-1-(2-methoxyphenyl)propan-2-yl]-2,2-dimethyl-propanamide] |
| 7.3 nM | CCCc1ccc([C@@H](Oc2ccc3c(cnn3-c3ccc(F)cc3)c2)[C@H](C)NC(=O)C(C)(C)C)cc1 [Example 188, N-[(1R,2S)-1-[1-(4-fluorophenyl)indazol-5-yl]oxy-1-(4-propylphenyl)propan-2-yl]-2,2-dimethyl-propanamide] |
